What all share (assay type): cell-based
In test [1] the test system is Streptococcus haemolyticus A 1088. The experiment in a line: MIC, agar serial dilution test. Particulars: A1088.
In test [2] the test system is Diplococcus pneumoniae L 54. Briefly: MIC, agar serial dilution test. The conditions noted are these: Streptococcus pneumoniae, L54.
In test [3] the test system is Haemophilus suis A 2096. Briefly: MIC, agar serial dilution test. Particulars: A2096.
Test [4] concerns Salmonella typhimurium R 172. The experiment in a line: MIC, agar serial dilution test. Particulars: Salmonella enterica.
Test [5] concerns Pseudomonas aeruginosa H 10. The experiment in a line: MIC, agar serial dilution test. The conditions noted are these: H10.
Test [6] relates to Pseudomonas aeruginosa 2396. The experiment in a line: MIC, agar serial dilution test.
Test [7] concerns Pseudomonas aeruginosa A 1058. The experiment in a line: MIC, agar serial dilution test. Particulars: A1058.
In a further test the test system is Proteus rettgeri A 821. Briefly: MIC, agar serial dilution test. The conditions noted are these: Providencia rettgeri, A821.
A further test concerns Proteus mirabilis H 3. Briefly: MIC, agar serial dilution test. The conditions noted are these: H3.
A further test concerns Proteus mirabilis L 93. The experiment in a line: MIC, agar serial dilution test. Particulars: L93.
The test system of a further test is Proteus mirabilis A 1200. Briefly: MIC, agar serial dilution test. The conditions noted are these: A1200.
Test [8] has as its system Streptococcus faecalis L 80. Briefly: MIC, agar serial dilution test. The conditions noted are these: Enterococcus faecalis, L80.
Test [9] concerns Pasteurella multocida A 723. The experiment in a line: MIC, agar serial dilution test. Particulars: A723.
Test [10] has as its system Klebsiella pneumoniae A 809. The experiment in a line: MIC, agar serial dilution test. Particulars: A809.
Test [11] has as its system Haemophilus suis A 2096. The experiment in a line: MIC, micro serial dilution test. The conditions noted are these: A2096, micro serial dilution test (brackets).

SMILES strings stand for the structures. Values after ≈ are worked out from the molar mass of the structure shown.

`CC1(C)S[C@@H]2[C@H](NC(=O)[C@H](N)c3ccccc3)C(=O)N2[C@H]1C(=O)O` [ampicillin]: the minimum inhibitory concentration (MIC) in test [1] was 0.75 µg/mL (≈ 2.15 µM); in test [2] it was 0.05 µg/mL (≈ 0.143 µM); in the test with Haemophilus suis A 2096 [3], 0.15 µg/mL (≈ 0.429 µM); in test [4] it was 3 µg/mL (≈ 8.59 µM); in test [5], above 100 µg/mL; in test [6], 50 µg/mL (≈ 143 µM). Besides, the MIC in test [7] amounted to 50 µg/mL (≈ 143 µM); in the test with Proteus rettgeri A 821 it was 3 µg/mL (≈ 8.59 µM); with Proteus mirabilis H 3, 3 µg/mL (≈ 8.59 µM); with Proteus mirabilis L 93, 3 µg/mL (≈ 8.59 µM); in the test on Proteus mirabilis A 1200 it was 3 µg/mL (≈ 8.59 µM).
For `CC1(C)S[C@@H]2[C@H](NC(=O)C(C(=O)O)c3ccccc3)C(=O)N2[C@H]1C(=O)O` (stereo partly drawn) [carbenicillin], the MIC in test [1] was 0.1 µg/mL (≈ 0.264 µM); in test [8], 25 µg/mL (≈ 66.1 µM); in test [2], 0.75 µg/mL (≈ 1.98 µM); in test [9], 0.2 µg/mL (≈ 0.529 µM); in [10], above 100 µg/mL; in test [4], 6 µg/mL (≈ 15.9 µM). Further, the MIC in test [7] came to 37 µg/mL (≈ 97.8 µM); against Proteus rettgeri A 821 it was 0.3 µg/mL (≈ 0.793 µM); with Proteus mirabilis L 93, 0.5 µg/mL (≈ 1.32 µM); with Haemophilus suis A 2096 [11], 0.2 µg/mL (≈ 0.529 µM).

The values are drawn from patent publication US4067986A, “Novel penicillanic acid” (Gist-Brocades N.V., priority 1974, dated 1978).
